Test results: patent US20240199605A1, “SMALL MOLECULAR INHIBITORS OF NF-kB INDUCING KINASE” (Janssen Pharmaceutica NV, priority 2019, published 2024)

How the values were obtained:
[1] = target: recombinant human NF-kappaB-inducing kinase (NIK/MAP3K14) (Homo sapiens (Human), UniProt Q99558); assay: Inhibition of auto-phosphorylation of recombinant human NIK/MAP3K14 (AlphaScreen); type: biochemical; conditions: NIK auto-phosphorylation, 5 μM ATP, 1 nM NIK, 2 h at 25° C.; average of values
How it was run: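 AlphaScreen read-out (anti-phospho-IKK Ser176/180 antibody, Protein A acceptor and glutathione donor beads) of NIK auto-phosphorylation. Reaction: 1 nM enzyme, 5 μM ATP, Tris pH 7.5 buffer with Mg2+ and vanadate, 2 h at 25° C., final DMSO 0.7%. IC50 came from a sigmoidal curve fit.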

[2] = test system: p-IKKα levels in L363 (NIK translocated multiple myeloma) cells; assay: Effect of compounds on p-IKKα levels in L363 cells (AlphaLISA SureFire Ultra); type: cell-based, human; conditions: Homo sapiens, L-363, 6 h, BAFF stimulated, MG132, 6 h, average of values, read-out: Assay 2 IC50
How it was run: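 Inhibition of p-IKKα (Ser176/180) read by AlphaLISA after 6 h, 37 °C compound exposure (11-point 1:3 series, 0.3% DMSO) of L363 cells pre-incubated overnight ± 250 ng/ml BAFF and plated ± BAFF ± 10 μM MG132. Normalised to BAFF/MG132/DMSO and unstimulated controls; IC50 by sigmoidal fitting, duplicates.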

Sequence of recombinant human NF-kappaB-inducing kinase (NIK/MAP3K14) (Q99558 whole entry): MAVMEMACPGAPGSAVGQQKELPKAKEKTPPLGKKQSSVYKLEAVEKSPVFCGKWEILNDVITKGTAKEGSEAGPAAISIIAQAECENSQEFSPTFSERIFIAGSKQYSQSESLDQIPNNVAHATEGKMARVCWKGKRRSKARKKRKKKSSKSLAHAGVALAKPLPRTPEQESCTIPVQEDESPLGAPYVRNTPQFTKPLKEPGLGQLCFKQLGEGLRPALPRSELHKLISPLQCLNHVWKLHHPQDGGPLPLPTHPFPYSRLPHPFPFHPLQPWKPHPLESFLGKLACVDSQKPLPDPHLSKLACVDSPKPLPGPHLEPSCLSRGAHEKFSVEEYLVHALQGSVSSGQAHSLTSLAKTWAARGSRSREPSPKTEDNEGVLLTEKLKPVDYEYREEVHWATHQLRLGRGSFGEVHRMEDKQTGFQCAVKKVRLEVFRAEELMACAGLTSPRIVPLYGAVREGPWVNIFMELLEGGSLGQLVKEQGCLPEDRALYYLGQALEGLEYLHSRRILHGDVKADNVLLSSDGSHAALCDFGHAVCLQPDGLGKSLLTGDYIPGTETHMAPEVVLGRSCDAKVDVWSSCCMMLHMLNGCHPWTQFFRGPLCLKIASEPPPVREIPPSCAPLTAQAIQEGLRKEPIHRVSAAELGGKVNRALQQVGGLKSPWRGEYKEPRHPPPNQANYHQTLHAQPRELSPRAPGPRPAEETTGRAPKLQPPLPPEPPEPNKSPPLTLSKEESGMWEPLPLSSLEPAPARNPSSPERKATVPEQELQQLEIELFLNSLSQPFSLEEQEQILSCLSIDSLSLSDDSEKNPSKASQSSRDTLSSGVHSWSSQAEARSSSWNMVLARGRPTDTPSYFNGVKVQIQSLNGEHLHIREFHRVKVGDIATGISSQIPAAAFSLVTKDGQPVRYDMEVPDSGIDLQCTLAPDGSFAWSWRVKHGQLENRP

Row | SMILES | IC50 [1] [nM] | IC50 [2] [nM]
1 | CN1CC[C@@](O)(C#Cc2cccc(-c3ccc4cnnc(N)c4c3)c2)C1=O [Example 96, (R)-3-[2-[3-(4-Aminophthalazin-6-yl)phenyl]ethynyl]-3-hydroxy-1-methyl-pyrrolidin-2-one] | 29 | > 5000
2 | CN1CC[C@@](O)(C#Cc2cccc(-c3cc(C4CCC4)c4ncnc(N)c4n3)c2)C1=O [Example 309, (R)-3-((3-(4-Amino-8-cyclobutylpyrido[3,2-d]pyrimidin-6-yl)phenyl)ethynyl)-3-hydroxy-1-methylpyrrolidin-2-one] | ≤ 0.5 | 9.7
3 | [2H]c1nc(N)c2nc(-c3cccc(C#C[C@]4(O)CCN(C)C4=O)c3)cc(C3CCNCC3)c2n1 [Example 287, (R)-3-((3-(4-Amino-8-(piperidin-4-yl)pyrido[3,2-d]pyrimidin-6-yl-2-d)phenyl)ethynyl)-3-hydroxy-1-methylpyrrolidin-2-one] | 44 | > 5000
4 | Cc1cnc(N)c2nc(-c3cccc(C#C[C@]4(O)CCn5ccnc54)c3)ncc12 [Example 86, (R)-7-[2-[3-(8-Amino-5-methyl-pyrido[3,4-d]pyrimidin-2-yl)phenyl]ethynyl]-5,6-dihydropyrrolo[1,2-a]imidazol-7-ol] | ≤ 0.5 | 7.7
5 | C[C@@](O)(C#Cc1cccc(-c2nc(C(F)(F)F)c3ccnc(N)c3n2)c1)c1nccs1 [Example 49, (R)-4-(3-(8-Amino-4-(trifluoromethyl)pyrido[3,4-d]pyrimidin-2-yl)phenyl)-2-(thiazol-2-yl)but-3-yn-2-ol] | 2.5 | 130
6 | Cc1nnc([C@](C)(O)C#Cc2cccc(-c3ncc4ccnc(N)c4n3)c2)o1 [Example 18, (R)-4-[3-(8-Aminopyrido[3,4-d]pyrimidin-2-yl)phenyl]-2-(5-methyl-1,3,4-oxadiazol-2-yl)but-3-yn-2-ol] | 0.9 | 61
7 | Cc1cc([C@](C)(O)C#Cc2cccc(-c3ccc4ncnc(N)c4c3)c2)no1 [Example 104, (R)-4-[3-(4-Aminoquinazolin-6-yl)phenyl]-2-(5-methylisoxazol-3-yl)but-3-yn-2-ol] | 1.3 | 280
8 | Cc1ccc(C#C[C@]2(O)CCN(C)C2=O)cc1-c1nc(C)c2ncnc(N)c2n1 [Example 301, (R)-3-[2-[3-(8-Amino-4-methyl-pyrimido[5,4-d]pyrimidin-2-yl)-4-methyl-phenyl]ethynyl]-3-hydroxy-1-methyl-pyrrolidin-2-one] | 4.5 | 48
9 | Nc1nccc2cnc(-c3cccc(C#C[C@@]4(O)CCn5ccnc54)c3)nc12 [Example 64, (S)-7-[2-[3-(8-Aminopyrido[3,4-d]pyrimidin-2-yl)phenyl]ethynyl]-5,6-dihydropyrrolo[1,2-a]imidazol-7-ol] | 31 | 730
10 | [2H]C([2H])([2H])N1CC[C@@](O)(C#Cc2ccc(C)c(-c3nc4c(N)ncnc4s3)c2)C1=O [Example 216, (R)-3-[2-[3-(7-Aminothiazolo[5,4-d]pyrimidin-2-yl)-4-methyl-phenyl]ethynyl]-3-hydroxy-1-(trideuteriomethyl)pyrrolidin-2-one] | ≤ 0.5 | 8.5
11 | C[C@@](O)(C#Cc1cccc(-c2ncc3ccnc(N)c3n2)c1)c1nccs1 [Example 32, (R)-4-[3-(8-Aminopyrido[3,4-d]pyrimidin-2-yl)phenyl]-2-thiazol-2-yl-but-3-yn-2-ol] | ≤ 0.5 | 12
12 | Cc1csc([C@@](C)(O)C#Cc2cccc(-c3ccc4nc(C)nc(N)c4n3)c2)n1 [Example 181, (S)-4-(3-(4-Amino-2-methylpyrido[3,2-d]pyrimidin-6-yl)phenyl)-2-(4-methylthiazol-2-yl)but-3-yn-2-ol] | > 5000 | > 5000
13 | CN1CC[C@@](O)(C#Cc2cccc(-c3cc(F)c4ncnc(N)c4c3)c2)C1=O [Example 113, (R)-3-[2-[3-(4-Amino-8-fluoro-quinazolin-6-yl)phenyl]ethynyl]-3-hydroxy-1-methyl-pyrrolidin-2-one] | ≤ 0.5 | 92

Results, then the compound that gave them:

Row | IC50 [1] [nM] | IC50 [2] [nM] | SMILES
14 | ≤ 0.5 | 12 | CCc1cnc(N)c2nc(-c3cccc(C#C[C@]4(O)CCN(C)C4=O)c3)ncc12 [Example 129, (R)-3-((3-(8-Amino-5-ethylpyrido[3,4-d]pyrimidin-2-yl)phenyl)ethynyl)-3-hydroxy-1-methylpyrrolidin-2-one]
15 | 7 | 78 | COc1ccc(C#C[C@]2(O)CCN(C)C2=O)cc1-c1ccc2nc(C)nc(N)c2n1 [Example 161, (R)-3-((3-(4-Amino-2-methylpyrido[3,2-d]pyrimidin-6-yl)-4-methoxyphenyl)ethynyl)-3-hydroxy-1-methylpyrrolidin-2-one]
16 | 4.7 | 320 | Cc1nc(N)c2nc(-c3cc(C#C[C@]4(O)CCN(C)C4=O)ccc3C)ccc2n1 [Example 150, (R)-3-((3-(4-Amino-2-methylpyrido[3,2-d]pyrimidin-6-yl)-4-methylphenyl)ethynyl)-3-hydroxy-1-methylpyrrolidin-2-one]
17 | 42 | 1400 | CN1CC[C@@](O)(C#Cc2cccc(-c3ccc4ncnc(N5CC(C)(C)C5)c4n3)c2)C1=O [Example 226, (R)-3-((3-(4-(3,3-Dimethylazetidin-1-yl)pyrido[3,2-d]pyrimidin-6-yl)phenyl)ethynyl)-3-hydroxy-1-methylpyrrolidin-2-one]
18 | 2.2 | > 5000 | CN1CC[C@@](O)(C#Cc2cccc(-c3ccc4nc(O)nc(N)c4n3)c2)C1=O [Example 211, (R)-3-((3-(4-Amino-2-hydroxypyrido[3,2-d]pyrimidin-6-yl)phenyl)ethynyl)-3-hydroxy-1-methylpyrrolidin-2-one]
19 | 180 | > 5000 | CO[C@@]1(C#Cc2cccc(-c3ccc4ncnc(N)c4n3)c2)CCN(C)C1=O [Example 207, (R)-3-((3-(4-Aminopyrido[3,2-d]pyrimidin-6-yl)phenyl)ethynyl)-3-methoxy-1-methylpyrrolidin-2-one]
20 | 12 | 180 | CN1CC[C@@](O)(C#Cc2cccc(-c3ccc4nc(CO)nc(N)c4n3)c2)C1=O [Example 173, (R)-3-((3-(4-Amino-2-(hydroxymethyl)pyrido[3,2-d]pyrimidin-6-yl)phenyl)ethynyl)-3-hydroxy-1-methylpyrrolidin-2-one]
21 | 6.1 | 600 | CN1CC[C@@](O)(C#Cc2cccc(-c3ccc4ncnc(N5CCCCC5)c4n3)c2)C1=O [Example 225, (R)-3-Hydroxy-1-methyl-3-((3-(4-(piperidin-1-yl)pyrido[3,2-d]pyrimidin-6-yl)phenyl)ethynyl)pyrrolidin-2-one]
22 | ≤ 0.5 | 11 | CN1CC[C@@](O)(C#Cc2cccc(-c3ncc4c(I)cnc(N)c4n3)c2)C1=O [Example 102, (R)-3-((3-(8-Amino-5-iodopyrido[3,4-d]pyrimidin-2-yl)phenyl)ethynyl)-3-hydroxy-1-methylpyrrolidin-2-one]
23 | 1.5 | 69 | CN1CC[C@@](O)(C#Cc2cccc(-c3ccc4ncnc(N5CC(F)C5)c4n3)c2)C1=O [Example 239, (R)-3-((3-(4-(3-Fluoroazetidin-1-yl)pyrido[3,2-d]pyrimidin-6-yl)phenyl)ethynyl)-3-hydroxy-1-methylpyrrolidin-2-one]
24 | 3.1 | 18 | CN1CC[C@@](O)(C#Cc2cccc(-c3cc(N(C)C)c4ncnc(N)c4n3)c2)C1=O [Example 295, (R)-3-[2-[3-[4-Amino-8-(dimethylamino)pyrido[3,2-d]pyrimidin-6-yl]phenyl]ethynyl]-3-hydroxy-1-methyl-pyrrolidin-2-one]
25 | 1.4 | 81 | CN1CC[C@@](O)(C#Cc2cccc(-c3ccc4nc(C(F)(F)F)nc(N)c4n3)c2)C1=O [Example 176, (R)-3-((3-(4-Amino-2-(trifluoromethyl)pyrido[3,2-d]pyrimidin-6-yl)phenyl)ethynyl)-3-hydroxy-1-methylpyrrolidin-2-one]
26 | 830 | > 5000 | CN1CC[C@@](O)(C#Cc2cccc(-c3ccc4[nH]nc(N)c4c3)c2)C1=O [Example 174, (R)-3-[2-[3-(3-Amino-1H-indazol-5-yl)phenyl]ethynyl]-3-hydroxy-1-methyl-pyrrolidin-2-one]
27 | 26 | 1000 | CN1CC[C@@](O)(C#Cc2cccc(-c3ccc4ncnc(C5CC5)c4n3)c2)C1=O [Example 270, (R)-3-((3-(4-Cyclopropylpyrido[3,2-d]pyrimidin-6-yl)phenyl)ethynyl)-3-hydroxy-1-methylpyrrolidin-2-one]
28 | 4.8 | 300 | CN1CC[C@@](O)(C#Cc2cccc(-c3ccc4ncnc(N5CC(O)C5)c4n3)c2)C1=O [Example 228, (R)-3-Hydroxy-3-((3-(4-(3-hydroxyazetidin-1-yl)pyrido[3,2-d]pyrimidin-6-yl)phenyl)ethynyl)-1-methylpyrrolidin-2-one]
29 | ≤ 0.5 | 29 | CN1CC[C@@](O)(C#Cc2cccc(-c3nc4c(N)nccc4c(=O)[nH]3)c2)C1=O [Example 55, (R)-8-Amino-2-(3-((3-hydroxy-1-methyl-2-oxopyrrolidin-3-yl)ethynyl)phenyl)pyrido[3,4-d]pyrimidin-4(3H)-one]
